Test results from patent US20210085640A1, “ACYLATED CATECHIN POLYPHENOLS AND METHODS OF THEIR USE FOR THE TREATMENT OF CANCER” (Flagship Pioneering Innovations V, Inc., priority 2018, published 2021).
pIC50: −log10 of the molar value.

What was measured:
Type in all cases: cell-based
[1] = tested on: T24 bladder cancer cells; experiment: Cancer cell survival (CellTiter-Glo), T24; conditions: Homo sapiens
In short: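 T24 cells seeded at 4×10^3 cells/well overnight, then exposed 72 h at 37 C, 5% CO2 to nine concentrations in triplicate. Survival measured by CellTiter-Glo luminescence relative to untreated and medium controls; IC50 derived.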

[2] = tested on: HCT 116 colorectal cancer cells; experiment: Cancer cell survival (CellTiter-Glo), HCT 116; conditions: Homo sapiens, HCT 116 cells, 72 h
In short: (§1)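 Cells were seeded at 4×10^3 cells/well and left overnight at 37 C, 5% CO2, then exposed in triplicate to nine compound concentrations for 72 h. Dosing solutions were made at 10× final (1 μM-10 mM fatty acids, 100 nM-1 mM other compounds). CellTiter-Glo luminescence, normalised to untreated and medium-only wells, gave IC50.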

[3] = tested on: Daudi lymphoma cancer cells; experiment: Cancer cell survival (CellTiter-Glo), Daudi; conditions: Homo sapiens, 72 h
In short: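 Daudi cells (4×10^3/well) were exposed for 72 h at 37 °C to nine concentrations of compound, added as 10× solutions spanning 1 μM–10 mM (fatty acids) or 100 nM–1 mM (others). CellTiter-Glo luminescence gave % survival versus untreated, medium-blank corrected; IC50 derived.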

[4] = tested on: PC-3 prostate cancer cells; experiment: Cancer cell survival (CellTiter-Glo), PC-3; conditions: Homo sapiens, PC-3 cells, 72 h
In short: as §1

[5] = tested on: AGS stomach cancer cells; experiment: Cancer cell survival (CellTiter-Glo), AGS
In short: as §1

[6] = tested on: A-431 skin cancer cells; experiment: Cancer cell survival (CellTiter-Glo), A-431; conditions: Homo sapiens, A-431 cells, 72 h
In short: as §1

[7] = tested on: A549 lung cancer cells; experiment: Cancer cell survival (CellTiter-Glo), A549; conditions: Homo sapiens, 72 h
In short: as §1

[8] = tested on: MCF7 breast cancer cells; experiment: Cancer cell survival (CellTiter-Glo), MCF7; conditions: Homo sapiens, 72 h
In short: as §1

[9] = 317 μM, read-out: Cell survival at given concentration
[10] = 1 mM, read-out: Cell survival at given concentration
[11] = 3 mM, read-out: Cell survival at given concentration
[12] = 10 mM, read-out: Cell survival at given concentration

CCCC(=O)O [butyrate]
viability at 1 µM ([1]; T-24, 1 μM, 72 h, Table 3.2, read-out: Cell survival at given concentration): 98%
viability at 3 µM ([1]; T-24, 3 μM, 72 h, Table 3.2, read-out: Cell survival at given concentration): 100%
viability at 10 µM ([1]; T-24, 10 μM, 72 h, Table 3.2, read-out: Cell survival at given concentration): 105%
viability at 32 µM ([1]; T-24, 32 μM, 72 h, Table 3.2, read-out: Cell survival at given concentration): 99%
viability at 100 µM ([1]; T-24, 100 μM, 72 h, Table 3.2, read-out: Cell survival at given concentration): 97%
viability at 317 µM ([1]; T-24, 317 μM, 72 h, read-out: Cell survival at given concentration): 90%
viability at 1000 µM ([1]; T-24, 1 mM, 72 h, read-out: Cell survival at given concentration): 84%
viability at 3000 µM ([1]; T-24, 3 mM, 72 h, read-out: Cell survival at given concentration): 60%
viability at 10000 µM ([1]; T-24, 10 mM, 72 h, read-out: Cell survival at given concentration): 27%
pIC50 ([1]; T-24, 72 h, Table 3.2, read-out: IC50): 2.33
viability at 1 µM ([2]; 1 μM, Table 6.2, read-out: Cell survival at given concentration): 98%
viability at 3 µM ([2]; 3 μM, Table 6.2, read-out: Cell survival at given concentration): 99%
viability at 10 µM ([2]; 10 μM, Table 6.2, read-out: Cell survival at given concentration): 102%
viability at 32 µM ([2]; 32 μM, Table 6.2, read-out: Cell survival at given concentration): 101%
viability at 100 µM ([2]; 100 μM, Table 6.2, read-out: Cell survival at given concentration): 97%
viability at 317 µM [2, 9]: 92%
viability at 1000 µM [2, 10]: 66%
viability at 3000 µM [2, 11]: 18%
viability at 10000 µM [2, 12]: 1%
pIC50 ([2]; Table 6.2): 2.84
viability at 1 µM ([3]; 1 μM, Table 4.2, read-out: Cell survival at given concentration): 101%
viability at 3 µM ([3]; 3 μM, Table 4.2, read-out: Cell survival at given concentration): 99%
viability at 10 µM ([3]; 10 μM, Table 4.2, read-out: Cell survival at given concentration): 100%
viability at 32 µM ([3]; 32 μM, Table 4.2, read-out: Cell survival at given concentration): 100%
viability at 100 µM ([3]; 100 μM, Table 4.2, read-out: Cell survival at given concentration): 99%
viability at 317 µM [3, 9]: 87%
viability at 1000 µM [3, 10]: 46%
viability at 3000 µM [3, 11]: 19%
viability at 10000 µM [3, 12]: 13%
pIC50 ([3]; Table 4.2): 3.04
viability at 1 µM ([4]; 1 μM, Table 8.2, read-out: Cell survival at given concentration): 100%
viability at 3 µM ([4]; 3 μM, Table 8.2, read-out: Cell survival at given concentration): 99%
viability at 10 µM ([4]; 10 μM, Table 8.2, read-out: Cell survival at given concentration): 100%
viability at 32 µM ([4]; 32 μM, Table 8.2, read-out: Cell survival at given concentration): 100%
viability at 100 µM ([4]; 100 μM, Table 8.2, read-out: Cell survival at given concentration): 98%
viability at 317 µM [4, 9]: 93%
viability at 1000 µM [4, 10]: 82%
viability at 3000 µM [4, 11]: 66%
viability at 10000 µM [4, 12]: 40%
pIC50 ([4]; Table 8.2): 2.19
viability at 1 µM ([5]; 72 h, 1 μM, Table 10.2, read-out: Cell survival at given concentration): 100%
viability at 3 µM ([5]; 72 h, 3 μM, Table 10.2, read-out: Cell survival at given concentration): 100%
viability at 10 µM ([5]; 72 h, 10 μM, Table 10.2, read-out: Cell survival at given concentration): 102%
viability at 32 µM ([5]; 72 h, 32 μM, Table 10.2, read-out: Cell survival at given concentration): 101%
viability at 100 µM ([5]; 72 h, 100 μM, Table 10.2, read-out: Cell survival at given concentration): 104%
viability at 317 µM ([5]; 72 h, 317 μM, read-out: Cell survival at given concentration): 105%
viability at 1000 µM ([5]; 72 h, 1 mM, read-out: Cell survival at given concentration): 91%
viability at 3000 µM ([5]; 72 h, 3 mM, read-out: Cell survival at given concentration): 65%
viability at 10000 µM ([5]; 72 h, 10 mM, read-out: Cell survival at given concentration): 11%
pIC50 ([5]; Table 10.2): 2.35
viability at 1 µM ([6]; 1 μM, Table 9.2, read-out: Cell survival at given concentration): 103%
viability at 3 µM ([6]; 3 μM, Table 9.2, read-out: Cell survival at given concentration): 102%
viability at 10 µM ([6]; 10 μM, Table 9.2, read-out: Cell survival at given concentration): 102%
viability at 32 µM ([6]; 32 μM, Table 9.2, read-out: Cell survival at given concentration): 103%
viability at 100 µM ([6]; 100 μM, Table 9.2, read-out: Cell survival at given concentration): 99%
viability at 317 µM [6, 9]: 96%
viability at 1000 µM [6, 10]: 85%
viability at 3000 µM [6, 11]: 67%
viability at 10000 µM [6, 12]: 37%
pIC50 ([6]; Table 9.2): 2.20
viability at 1 µM ([7]; 1 μM, Table 7.2, read-out: Cell survival at given concentration): 95%
viability at 3 µM ([7]; 3 μM, Table 7.2, read-out: Cell survival at given concentration): 96%
viability at 10 µM ([7]; 10 μM, Table 7.2, read-out: Cell survival at given concentration): 99%
viability at 32 µM ([7]; 32 μM, Table 7.2, read-out: Cell survival at given concentration): 100%
viability at 100 µM ([7]; 100 μM, Table 7.2, read-out: Cell survival at given concentration): 102%
viability at 317 µM [7, 9]: 101%
viability at 1000 µM [7, 10]: 90%
viability at 3000 µM [7, 11]: 67%
viability at 10000 µM [7, 12]: 27%
pIC50 ([7]; Table 7.2): 2.30
viability at 1 µM ([8]; 1 μM, Table 5.2, read-out: Cell survival at given concentration): 101%
viability at 3 µM ([8]; 3 μM, Table 5.2, read-out: Cell survival at given concentration): 103%
viability at 10 µM ([8]; 10 μM, Table 5.2, read-out: Cell survival at given concentration): 102%
viability at 32 µM ([8]; 32 μM, Table 5.2, read-out: Cell survival at given concentration): 100%
viability at 100 µM ([8]; 100 μM, Table 5.2, read-out: Cell survival at given concentration): 104%
viability at 317 µM [8, 9]: 98%
viability at 1000 µM [8, 10]: 82%
viability at 3000 µM [8, 11]: 54%
viability at 10000 µM [8, 12]: 24%
pIC50 ([8]; Table 5.2): 2.44
